Entries after “also recorded” stand apart in the source; their conditions may differ.
Columns and labels:
Caki-1 cells [1] = experiment: MTT cell viability assay of Caki-1 treated with TG-101209 and its alternatives; format: cell-based, Human; conditions: for cell viability (MTT assay) / Ranking, Cell viability (%): 1 day; for Ranking, Cell viability (%): top five target drugs, MTT assay, 10 μM, rank 1 = greatest reduction
Method: (§1) Cell culture 2: Caki-1 was purchased from CLS Cell Lines Service (Germany). The cells were maintained in McCoy's SA (modified) medium (16600082, Thermo Fisher Scientific, USA) and supplemented with 10% fetal bovine serum (FBS, F7524, Sigma-Aldrich), 1% Penicillin/Streptomycin (P4333, Sigma-Aldrich).
The cytotoxic effects of the TG-101209 and its alternatives on the Caki-1 cells were tested by MTT (Thiazolyl Blue Tetrazolium Bromide) method. 1.5×10^4 cells were seeded per well in a 96-well plate in 100 μL growth media. […] After the incubation period, 5 mg/ml MTT (M2128, Sigma-Aldrich) solution in PBS (10 μL) was added to each well. After 1 hour, the MTT solution and all media were removed from the wells. 100 μl of DMSO was added and mixed to dissolve the formazan crystals. Cell viability was analysed by measuring the absorbance of the dissolved formazan at a wavelength of 570 nm with a microplate reader (Hidex Sense Beta Plus).

Caki-1 cells [2] = experiment: LDH cytotoxicity assay of Caki-1; format: cell-based, Human; conditions: 1 day; for cytotoxicity (LDH assay): Caki-1, 10 μM; for Ranking, Cytotoxicity (%): top five target drugs, LDH assay, 10 μM, rank 1 = highest cytotoxicity
Method: as §1
Lactate dehydrogenase (LDH) assay was performed with LDH Assay Kit (ab65393). 1.5×10^4 cells per well (from cell culture 2) were seeded in a 96-well plate and drugs were treated at 10 μM for 1 day with 200 μl media. 20 μl of media was analysed with LDH Assay Kit as per manufacturer's instruction.

Structure (SMILES) | cell viability (MTT assay) (Caki-1 cells [1]; Caki-1, 5 μM) | IC50 (Caki-1 cells [1]; Homo sapiens, FIG. 43, assay not named, presumably Caki-1 cell viability) [µM] | cytotoxicity (LDH assay) (Caki-1 cells [2]) | Ranking, Cytotoxicity (%) (Caki-1 cells [2]) | cell viability (MTT assay) (Caki-1 cells [1]; Caki-1, 10 μM) | Ranking, Cell viability (%) (Caki-1 cells [1])
Cc1cnc(Nc2ccc(C(=O)Nc3ccc(OCCCN4CCOCC4)cc3)cc2)nc1Nc1cccc(S(=O)(=O)NC(C)(C)C)c1 [M101G, 4-((4-((3-(N-(tert-butyl)sulfamoyl)phenyl)amino)-5-methylpyrimidin-2-yl)amino)-N-(4-(3-morpholinopropoxy)phenyl)benzamide] | greatest | – | – | – | – | –
Cc1cnc(Nc2ccc(OCCCN3CCOCC3)cc2)nc1Nc1cccc(S(=O)(=O)NC(C)(C)C)c1 [M103, N-(tert-butyl)-3-((5-methyl-2-((4-(3-morpholinopropoxy)phenyl)amino)pyrimidin-4-yl)amino)benzenesulfonamide] | – | ~3 | – | – | – | –
Cc1cnc(Nc2ccc(C(=O)Nc3cccc(S(=O)(=O)NC(C)(C)C)c3)cc2)nc1Nc1cccc(S(=O)(=O)NC(C)(C)C)c1 [M101D, N-(3-(N-(tert-butyl)sulfamoyl)phenyl)-4-((4-((3-(N-(tert-butyl)sulfamoyl)phenyl)amino)-5-methylpyrimidin-2-yl)amino)benzamide] | greatest | – | exhibited cytotoxicity; also recorded: highest cytotoxicity; also recorded: greatest cytotoxicity | 1 | most profound effect on the cell viability; also recorded: greatest reduction of cell viability; also recorded: greatest reduction in cell viability | 2
Cc1cnc(Nc2ccc(C(=O)Nc3ccc4ncccc4c3)cc2)nc1Nc1cccc(S(=O)(=O)NC(C)(C)C)c1 [M101H, 4-((4-((3-(N-(tert-butyl)sulfamoyl)phenyl)amino)-5-methylpyrimidin-2-yl)amino)-N-(quinolin-6-yl)benzamide] | greatest | – | – | – | – | –
Cc1cnc(Nc2ccc(C(=O)Nc3cccc(Br)c3)cc2)nc1Nc1cccc(S(=O)(=O)NC(C)(C)C)c1 [M101B, N-(3-bromophenyl)-4-((4-((3-(N-(tert-butyl)sulfamoyl)phenyl)amino)-5-methylpyrimidin-2-yl)amino)benzamide] | greatest | – | exhibited cytotoxicity | 3 | – | –
Cc1cnc(Nc2ccc(C(=O)Nc3cccc(S(=O)(=O)N4CCOCC4)c3)cc2)nc1Nc1cccc(S(=O)(=O)NC(C)(C)C)c1 [M101F, 4-((4-((3-(N-(tert-butyl)sulfamoyl)phenyl)amino)-5-methylpyrimidin-2-yl)amino)-N-(3-(morpholinosulfonyl)phenyl)benzamide] | greatest | – | exhibited cytotoxicity | – | – | –
COc1cc(NC(=O)c2ccc(Nc3ncc(C)c(Nc4cccc(S(=O)(=O)NC(C)(C)C)c4)n3)cc2)cc(OC)c1 [M101A, 4-((4-((3-(N-(tert-butyl)sulfamoyl)phenyl)amino)-5-methylpyrimidin-2-yl)amino)-N-(3,5-dimethoxyphenyl)benzamide] | greatest | – | exhibited cytotoxicity | 5 | most profound effect on the cell viability | 4

From patent US20250188041A1, “NEW COMPOUNDS AND TREATMENT OF RENAL CELL CARCINOMA” (Trustlife Global Inc., priority 2022, published 2025)
